Laboratory results as given in patent US6492124B1, “Trance activated signal transduction pathways in osteoclasts” (The Rockefeller University, priority 1999, dated 2002).

Key:
PKB [1] = assay: PKB activation in osteoclasts (phospho-PKB Western blot); assay type: cell-based, mouse
Protocol: FIG. 1. […] (A) Mature bone marrow-derived osteoclasts were stimulated for the indicated times with recombinant hCD8-TRANCE (TRANCE; 1 μg/ml). Levels of phosphorylated forms of p44/p42 ERK (p44 ERK^P and p42 ERK^P), IκBα (IκB-α^P) and PKB (PKB^P) in whole cell extracts were determined using phospho-peptide-specific antibodies as indicated in the figure. […] (B) as in (A) except the use of mature bone marrow-derived dendritic cells instead of osteoclasts.
FIG. 2. […] (A) Osteoclasts were serum starved and then pretreated for 90 min with LY294002 (10 μM), Herbimycin A (Herb. A; 10 μM), and PP1 (10 μM) inhibitors which are specific for PI3-kinase, PTKs, and Src-family kinases, respectively, were stimulated for indicated times with TRANCE (1 μg/ml). Levels of phosphorylated p44/p42 ERK, PKB, and IκB-α were determined as described in FIG. 1. Cells pretreated with vehicle (DMSO) were used as a negative control. (B) as in (A) except the use of mature bone marrow-derived dendritic cells.
Primary cells and cell lines. […] In brief, bone marrow cells from tibiae and femur of 4-6 week old mice (C57BL/6, Jackson Laboratories) were cultured overnight in media (α-MEM, 10% FCS) in the presence of CSF-1 (5 ng/ml). […] For experiments described in this study, only adherent cells were used after extensive washing. […] After allowing them adhere for 2 hours to a tissue culture dish, contaminating floater cells were washed away and mature dendritic cells were obtained by overnight culture.
Cell stimulation, cell transfection and in vitro assays. In vitro differentiated mature dendritic cells, macrophages and osteoclasts were washed to remove exogenous growth factors, cultured in media with low serum (0.5% FCS, 6 hours), then stimulated by adding various cytokines in the presence or absence of inhibitors for various times as indicated. After stimulation, the cells were washed in ice-cold PBS, and subjected to Western blot analysis or immunoprecipitation as described below.
All cells were harvested and lysed in extraction buffer (20 mM HEPES NaOH (pH 7.4), 150 mM NaCl, 1% Triton X-100, 10% glycerol, 10 mM EDTA, 1 mM Na3VO4, 1 mM phenylmethylsulfonylfluoride, 1 μg/ml leupeptin, and 0.1 U of aprotinin per ml) and cleared by centrifugation to obtain whole cell extracts. Protein assays were performed to ensure equal amounts of lysates were used in each sample.

PKB [2] = assay: PKB activation in dendritic cells (phospho-PKB Western blot); assay type: cell-based, mouse
Protocol: FIG. 1. TRANCE activates p44/42 ERK, NF-κB and PKB in osteoclasts and dendritic cells. (A) Mature bone marrow-derived osteoclasts were stimulated for the indicated times with recombinant hCD8-TRANCE (TRANCE; 1 μg/ml). Levels of phosphorylated forms of p44/p42 ERK (p44 ERK^P and p42 ERK^P), IκBα (IκB-α^P) and PKB (PKB^P) in whole cell extracts were determined using phospho-peptide-specific antibodies as indicated in the figure. The membranes were stripped and incubated with antibodies against the p44/p42 ERK, IκB-α, and PKB as indicated to confirm that similar amounts of whole cell extracts were analyzed. Note the decrease of IκB-α after 10 min of treatment due to its degradation. (B) as in (A) except the use of mature bone marrow-derived dendritic cells instead of osteoclasts.
FIG. 2. TRANCE-induced PKB activation in osteoclasts and dendritic cells is blocked by inhibitors of PI3-kinase, tyrosine kinases and Src family kinases. (A) Osteoclasts were serum starved and then pretreated for 90 min with LY294002 (10 μM), Herbimycin A (Herb. A; 10 μM), and PP1 (10 μM) inhibitors which are specific for PI3-kinase, PTKs, and Src-family kinases, respectively, were stimulated for indicated times with TRANCE (1 μg/ml). Levels of phosphorylated p44/p42 ERK, PKB, and IκB-α were determined as described in FIG. 1. Cells pretreated with vehicle (DMSO) were used as a negative control. (B) as in (A) except the use of mature bone marrow-derived dendritic cells.
FIG. 6. Cytokine receptors that engage TRAF6 activate PKB through Src-family kinases. (A) Dendritic cells were treated with TNF (10 ng/ml), TRANCE (5 μg/ml), LPS (50 μg/ml), or IL-1α (20 ng/ml) for the indicated times (min). The activation of PKB was determined in whole cell extracts using a phospho-PKB-specific antibody as described in FIG. 1. (B) Dendritic cells were pretreated with vehicle (DMSO) or the Src-family kinase inhibitor, PP1 (10 μM) for 90 minutes followed by a 15 minute treatment with TRANCE (5 μg/ml), LPS (50 μg/ml), or IL-1α (20 ng/ml) or no treatment at all (−). The activation of PKB was determined as described in FIG. 1.
Primary cells and cell lines. Osteoclasts and macrophages were generated from bone marrow precursors as described (Wani, et al., Endocrinology, 140:[…], 1999). In brief, bone marrow cells from tibiae and femur of 4-6 week old mice (C57BL/6, Jackson Laboratories) were cultured overnight in media (α-MEM, 10% FCS) in the presence of CSF-1 (5 ng/ml). After 24 hours, non-adherent cells were harvested, washed, and further cultured in media with CSF-1 (50 ng/ml) plus TRANCE (10 ng/ml) to develop osteoclasts, or with CSF-1 alone to develop macrophages. Using these conditions, after 4 days of culture, greater than 95 percent of the adherent cells were osteoclasts or macrophages. For experiments described in this study, only adherent cells were used after extensive washing. Mature dendritic cells were generated from bone marrow precursors of 4-6 week old female C57BL/6 mice (C57BL/6, Jackson Laboratories) cultured in media (RPMI1640, 5% FBS) and GM-CSF (1:30 cultured supernatant from the J558 cell line, a gift from Dr. R. M. Steinman, The Rockefeller University) for 8 days as previously described (Inaba, et al., J. Exp. Med., 176:1693-1702, 1992). To generate osteoclasts and dendritic cells from c-Src deficient mice, spleen cells, which contain hematopoietic precursors due to extramedullary hematopoeisis, were substituted for bone marrow cells as previously described (Schwartzberg, et al., Genes Dev., 11:2835-2844, 1997). Mature spleen-derived dendritic cells were isolated from spleens treated with collagenase (40 U/ml; Boehinger Mannheim) and subjected to a Nycodenz centrifugation gradient (14.5%; Nycomed) to obtain low density cells. After allowing them adhere for 2 hours to a tissue culture dish, contaminating floater cells were washed away and mature dendritic cells were obtained by overnight culture.
Cell stimulation, cell transfection and in vitro assays. […]

Substance: TNF-related activation-induced cytokine [TRANCE]
- activation of PKB in c-Src−/− osteoclasts compared with wild-type (PKB [1]; TRANCE 5 μg/ml, 10 min): substantially reduced
- time by which PKB activity subsided (PKB [1]; osteoclasts, TRANCE stimulation): ≤ 60 min
- phosphorylated form of PKB upon TRANCE stimulation (PKB [1]; osteoclasts, after 5 minutes, TRANCE 1 μg/ml): increase
- PKB activation in dendritic cells stimulated with cytokine (PKB [2]; TNF 10 ng/ml, TRANCE 5 μg/ml, LPS 50 μg/ml, IL-1α 20 ng/ml, CD40L data not shown): activated
- PKB activation in dendritic cells from c-Src−/− mice (PKB [2]; TRANCE-treated, compared with wild-type): not significantly reduced
- time for which PKB activity was sustained (PKB [2]; dendritic cells, TRANCE stimulation): greater than 3 hours
- phosphorylated form of PKB upon TRANCE stimulation (PKB [2]; dendritic cells, after 5 minutes, TRANCE 1 μg/ml): increase
